The conditions of data set [1]: for stability of the compound in phosphate buffer (HPLC): 25 μM of each compound, 0.1 M phosphate buffer pH 7.4.
Data set [2] relates to MC38 colon cancer cells. As to the kind of experiment: MC38 colon cancer cell proliferation (MTT assay). It counts as cell-based. To be noted: for effect of antioxidant on anti-proliferative effect of curcumin: MC38, curcumin 20 μM with antioxidant (3.9 μM each, FIG. 4D); for effect of antioxidant on anti-proliferative effect of curcumin / effect of antioxidant alone on MC38 cell proliferation: 24 h; for effect of antioxidant alone on MC38 cell proliferation: 3.9-62.5 μM antioxidant alone; for inhibition at 10 µg/mL: Mus musculus. On the procedure:
MC38 colon cancer cells (a gift from Prof. Ajit Varki at the University of California, San Diego) were plated into 96-well plates (6,000 cells per well) in 100 μL Dulbecco's Modified Eagle Medium (DMEM, purchased from Lonza, Allendale, N.J.) fortified with 10% Fetal Bovine Serum ([…], purchased from Coming Inc., Corning, N.Y.) and allowed to attach overnight. […] Nitteranon, V.; Chan, L. Y.; Parkin, K. L. Glutathione conjugation attenuates biological activities of 6-dehydroshogaol from ginger. Food Chem. 140:1-8; 2013, which is incorporated by reference herein in its entirety and for all purposes.

In data set [3] the test system is LPS-induced NO production. As to the kind of experiment: LPS-induced NO production in RAW 264.7 macrophage cells. It counts as cell-based.
The test system of the next data set is iNOS. As to the kind of experiment: LPS-induced expression of iNOS in RAW 264.7 macrophage cells. Format: cell-based.
The next data set deals with NF-kB signaling. As to the kind of experiment: LPS-induced NF-kB signaling in RAW 264.7 macrophage cells. Format: cell-based.
Data set [4] has as its system MC38 colon cancer cells. As to the kind of experiment: Cell cycle progression and apoptosis in MC38 colon cancer cells. To be noted: MC38, 24 hour treatment. It counts as cell-based.
For the next data set, the system named is colorectal cancer. The conditions noted are these: human, cited from earlier work.
Data set [5] is described as follows: Curcumin stability in serum-free basal DMEM medium (HPLC). Format: physicochemical. From the text:
(A1-A6) Representative microscope images of the treated cells. […] The results are mean ±SD, The samples designated with different letters are statistically different (P <0.05).

In data set [6] the test system is Cadmium-induced hepatotoxicity. To be noted: rats; 200-400 mg/kg curcumin alone, 400 mg/kg ascorbate alone, or their combination; cited from earlier work.
In the next data set the test system is COX-2. To be noted: RAW 264.7 macrophage cells.
For data set [7] the following is noted: aqueous buffer, background statement; cited from earlier work.
Data set [8] has as its system advanced pancreatic cancer. The conditions noted are these: human, daily intake of 8 grams; cited from earlier work.
A short description of a further data set: physchem. The conditions noted are these: 0.1 M phosphate buffer, pH 7.4.
Data set [9] can be described thus: Plasma concentration of curcumin in mice after i.p. injection (HPLC). To be noted: male, Swiss Webster, mouse, intraperitoneal, 20 mg/kg. Format: in vivo. The method, then: After 1 h, the mice were sacrificed to harvest the blood. The harvested blood was centrifuged at 1,200 g for 10 min at 4° C. to prepare the plasma fraction; then 200 μL plasma was immediately extracted with 400 μL ethyl acetate, the ethyl acetate extract was dried and reconstituted in methanol for HPLC analysis.
The mobile phase consisted methanol with 0.1% acetic acid (mobile phase B) and water with 0.1% acetic acid (mobile phase A).

The mark [10] stands for this setting: 25 μM curcumin, 0.1 M phosphate buffer, with or without 150 μM antioxidant, HPLC, % of time 0.

Entries after “also recorded” stand apart in the source; their conditions may differ. Where two headings read alike, the source gives them in different places.

Results on ten compounds are retold here after patent publication US20170071901A1, “METHODS AND FORMULATIONS FOR INCREASING CHEMICAL STABILITY AND BIOLOGICAL ACTIVITY OF PHENOLIC COMPOUNDS” (priority 2015, published 2017).

As for `O=C(O)c1cc(O)c(O)c(O)c1` [gallic acid], the “effect of co-added antioxidant on curcumin stability (colorimetric assay, absorbance 420 nm)” value in data set [1] (25 μM curcumin, phosphate buffer, dose of antioxidants 15 and 1.50 μM as printed) is “dramatically increased curcumin stability”. Besides, in data set [1] (24-h and 48-h incubation, antioxidant 150 μM, 25 μM curcumin, phosphate buffer, HPLC), the “effect of co-added antioxidant on long-term stability of curcumin” value is reported as “significantly increased long-term stability of curcumin”. For the same compound, the “effect of antioxidant on anti-proliferative effect of curcumin” value (from here on “effect of antioxidant … of curcumin”) with MC38 colon cancer cells [2] was “significantly increased anti-proliferative effects of curcumin”.

As to `O=C(O)/C=C/c1ccc(O)c(O)c1` [caffeic acid], in the data set on MC38 colon cancer cells [2], the “effect of antioxidant … of curcumin” value was “significantly increased anti-proliferative effects of curcumin”.

Take `COc1ccc(C=CC(=O)CC(=O)C=Cc2ccc(OC)c(OC)c2)cc1OC` [dimethoxy curcumin, 1,7-bis(3,4-dimethoxyphenyl)-1,6-heptadiene-3,5-dione]: in data set [1], the “stability of the compound in phosphate buffer (HPLC)” value is “very stable”.

On to `O=C([O-])CN(CCN(CC(=O)O)CC(=O)O)CC(=O)[O-].[Na+].[Na+]` [EDTA, disodiumethylenediaminetetra acetic acid], for which the “protective effect of EDTA on curcumin stability (HPLC)” value in data set [1] (EDTA even at a dose as high as 200 μM, phosphate buffer) is recorded as “little protective effect”.

With bicyclopentadione [BCP], in [3], the “inhibition of LPS-induced NO production” value is listed as “no effect”. Besides, the “inhibition of LPS-induced expression of iNOS” value in the data set with iNOS is “no effect”. Moreover, the “inhibition of LPS-induced NF-kB signaling (IKK phosphorylation, IκBα degradation, nuclear translocation of p65)” value with NF-kB signaling is “neither TDP nor BCP had such inhibitory effect”. In addition, in the data set with MC38 colon cancer cells [4], the “G2 cell cycle arrest and apoptosis” value is listed as “neither TDP nor BCP had such effects”. For the same compound, the “inhibition of cancer cell proliferation in the tested dose range” value in the data set with MC38 colon cancer cells [2] (MC38, 10-40 μg/mL, 24-72 h treatment) was “completely inactive”.

Turning to `O=C1O[C@H]([C@@H](O)CO)C(O)=C1O` [ascorbate], the “effect of antioxidant alone on MC38 cell proliferation” value in the data set with MC38 colon cancer cells [2] is recorded as “no effect”.

Turning to `O=C(/C=C/c1ccc(O)c(O)c1)O[C@H](Cc1ccc(O)c(O)c1)C(=O)O` [rosmarinic acid], the “effect of antioxidant … of curcumin” value in the data set with MC38 colon cancer cells [2] is “significantly increased anti-proliferative effects of curcumin”.

For the compound `COc1cc(/C=C/C(=O)CC(=O)/C=C/c2ccc(O)c(OC)c2)ccc1O` [curcumin], the “inhibition of LPS-induced NO production” value in data set [3] is recorded as “inhibited LPS-induced NO production in a dose-dependent manner”. Also, in [1] (25 μM curcumin, 0.1 M phosphate buffer pH 7.4, after ~12-min incubation), the “degradation of curcumin in the buffer (HPLC)” value is given as 80-90%. Further, in data set [1] (setting [10]), the “curcumin remaining in the phosphate buffer after 24-h incubation” value is about 5.9% and the “curcumin remaining in the phosphate buffer after 48-h incubation” value is about 4.2%. For the same compound, in data set [1], the “stability of the compound in phosphate buffer (HPLC)” value is “rapidly degraded”. Further, the “effect in Phase IIa trial of colorectal cancer at 2 grams/day” value with colorectal cancer (2 grams/day) was “no effect”. In the data set on colorectal cancer (4 grams/day), the “effect in Phase IIa trial of colorectal cancer at 4 grams/day” value was “only inhibited aberrant crypt foci; also recorded: only reduced colorectal cancer risks”. In addition, the “reduction of aberrant crypt foci” value in the data set with colorectal cancer (daily intake of 4 grams of curcumin for a month) is reported as about 40%. In addition, in the data set with iNOS, the “inhibition of LPS-induced expression of iNOS” value is “dose-dependently inhibited”. Also, the “stability of curcumin in basal medium” value in data set [5] is “rapidly degraded”. In the data set with NF-kB signaling, the “inhibition of LPS-induced NF-kB signaling (IKK phosphorylation, IκBα degradation, nuclear translocation of p65)” value is recorded as “inhibited LPS-induced activation of NF-kB signaling”. The “effect on Cadmium-induced hepatotoxicity” value in data set [6] is listed as “no effect”. Also, the “inhibition of LPS-induced expression of inflammatory protein COX-2” value with COX-2 is recorded as “inhibited”. In addition, the “half-life of curcumin at physiological pH” value in data set [7] is listed as “several minutes”. For the same compound, the “anti-cancer efficacy in advanced pancreatic cancer” value in data set [8] was “demonstrates anti-cancer efficacy in some patients”. For the same compound, in the data set with MC38 colon cancer cells [4], the “G2 cell cycle arrest and apoptosis” value was “significantly induced G2 cell cycle arrest and apoptosis”. For the same compound, in “physchem”, the half-life at 25 μM is under 10 min. The inhibition at 10 µg/mL in the data set on MC38 colon cancer cells [2] (MC-38, 24 h, read-out: inhibition of MC38 proliferation after 24 h treatment) is about 60%. Besides, the inhibition at 10 µg/mL in the data set with MC38 colon cancer cells [2] (MC-38, read-out: inhibition of MC38 proliferation after 48-72 h treatment) was over 95%. In data set [9], this compound displayed a concentration at 1 h of 0.0148 ± 0.016 µM.

In the case of `CC(C)(C)c1cc(O)ccc1O` [TBHQ, tert-butylhydroquinone], the “effect of antioxidant … of curcumin” value in the data set on MC38 colon cancer cells [2] is given as “significantly increased anti-proliferative effects of curcumin”.

In the case of `Cc1c(C)c2c(c(C)c1O)CCC(C)(C(=O)O)O2` (stereo not drawn) [Trolox], in the data set with MC38 colon cancer cells [2], the “effect of antioxidant alone on MC38 cell proliferation” value is on record as “no effect” and the “effect of antioxidant … of curcumin” value is recorded as “significantly increased anti-proliferative effects of curcumin”.
